Literature values in US20110142834A1, “TREATMENT OF HEARING AND BALANCE IMPAIRMENTS USING COMPOUNDS HAVING ERYTHROPOIETIN ACTIVITY” (Edison Pharmaceuticals, Inc., priority 2008, published 2011).

SMILES: [H]/N=C(/N)N[C@H]1[C@H](O)[C@@H](O)[C@H](O[C@@H]2O[C@@H](C)[C@](O)(C=O)[C@H]2O[C@@H]2O[C@@H](CO)[C@H](O)[C@@H](O)[C@@H]2NC)[C@@H](N/C(N)=N\[H])[C@@H]1O [streptomycin]
- incidence of vestibular impairment (1 gram per day): 25%
- patients displaying some vestibular impairment (2 grams daily for 60 to 120 days): ~75%
